Experimental findings from paper PMC10821019, “F16 Hybrids Derived from Steviol or Isosteviol Are Accumulated in the Mitochondria of Tumor Cells and Overcome Drug Resistance” (Molecules, 2024) are described below.

Several values for one entry are separate records, joined by “and”; a condition that tells them apart may be missing. Identical values can stand only once.

In one data set the test system is A549 (lung carcinoma). Description: SRB cytotoxicity assay, A549. As to conditions: for selectivity index 2 (SI 2): CCD18Co/A549; for IC50: SRB assay, 72 h treatment, mean n = 3, SD 5-10%. It counts as cell-based, human. An excerpt:
(§1) All compounds were screened for their cytotoxic activity and tumor cell selectivity using our standard model, previously described, comprising a selection of human tumor cell lines representing different solid tumor entities and non-malignant human fibroblasts (CCD18Co) including the cell line pair A2780/A2780cis, a well-known model of acquired drug resistance.
(§2) Reagents were bought from commercial suppliers and used without further purification. The solvents were dried according to the usual procedures. TLC was performed on silica gel (Macherey-Nagel, detection with UV absorption; Macherey-Nagel, Düren, Germany). […] Numbering in the NMR spectra: 1–20 (diterpene core), 21–24 for O-(CH2)n-N fragment followed by the pyridinium ring, the ethenyl moiety and the indole moiety. […] IR spectra were recorded on a Perkin-Elmer Spectrum Two (UATR Two Unit, Perkin-Elmer GmbH, Rodgau, Germany). […] Both media were supplemented with 10% fetal bovine serum (Biowest, Nuaillé, France) and 1% penicillin-streptomycin (Sigma-Aldrich).
(§3) Cytotoxic activities of compounds were analyzed using the SRB cytotoxicity assay. Cells were seeded in 96-well plates and after 24 h were treated with serial dilutions of compounds for 72 h. All subsequent steps were performed according to the previously described SRB assay protocol. Dose–response curves and calculation of IC50 values, including standard deviations, were carried out using GraphPad Prism8.
(The SRB assay estimates cell density from bound dye.)

Data set [1] concerns A2780 (ovarian carcinoma). Description: SRB cytotoxicity assay, A2780. The following applies: for selectivity index 1 (SI 1): CCD18Co/A2780; for IC50: SRB assay, 72 h treatment, mean n = 3, SD 5-10%; for tumor cell selectivity, in words: tumor cells vs non-malignant fibroblasts CCD18Co. The class given is cell-based, human.
Description: as §1, §2, §3

The subject of the next data set is MCF7 (breast carcinoma). Description: SRB cytotoxicity assay, MCF7. The class given is cell-based, human. The following applies: mean n = 3, SD 5-10%.
Description: as §1, §2, §3

Data set [2] concerns CCD18Co (non-malignant human fibroblasts). The experiment in a line: SRB cytotoxicity assay, CCD18Co. It counts as cell-based. The following applies: 72 h treatment, mean n = 3, SD 5-10%.
Description: as §1, §2, §3

In the next data set the test system is A549 cells. The experiment in a line: Subcellular localization, live cell fluorescence imaging with AHCS2 and Hoechst 33342. The class given is cell-based, human. The following applies: 24 h, 10 µM of 5 or 1 µM of 17 or 25, together with 20 nM AHCS2, Hoechst 33342. The text has this: Next, the subcellular accumulation of compounds 17 and 25 compared to 5 (F16 group) was studied, employing the fluorescent characteristics mediated by the F16 group. Expecting a mitochondrial accumulation of the compounds, our previously described strong mitochondria-targeted and NIR fluorescent agent/mitocan AHCS2 (compound 21 in ref. [4]) was used, thus enabling simultaneous analysis and direct comparison due to different fluorescence spectra.
Analysis of subcellular localization of compounds was performed in A549 cells using the established mitochondrial targeting compound AHCS2 [4] for direct comparison. For all procedures, RPMI 1640 media without phenol-red (Pan-Biotech GmbH, Aidenbach, Germany) was used. Cells were seeded in a µ-Plate 96-well black plate (ibiTreat: #1.5 polymer coverslip bottom, ibidi GmbH, Gräfelfing, Germany) at a cell density of 30.000 per well. After 24 h, cells were treated with 10 µM of compound 5 or 1 µM of compound 17 or 1 µM of compound 25, each together with 20 nM of compound AHCS2. After 24 h, Hoechst 33342 (Sigma-Aldrich) was added and live cell imaging was performed on an Axio Observer 7 (Carl Zeiss Microscopy Deutschland GmbH, Oberkochen, Germany) using the settings for Ex/Em, as follows: Hoechst 33342 (385 nm/425 nm), F16 compounds (475 nm/514 nm), AHCS2 (735 nm/785 nm). For simultaneous analysis, multiple Z-stacked images were taken and resulting pictures were reconstructed using the ZEN 3.5 pro software (Zeiss).

For data set [3], the system named is A2780cis (resistant derivative of A2780). The experiment in a line: SRB cytotoxicity assay, A2780cis. The following applies: for drug resistance in the A2780/A2780cis model, in words: A2780cis vs A2780; for IC50: SRB assay, 72 h treatment, mean n = 3, SD 5-10%; for resistance index (RI): quotient IC50 values A2780cis/A2780. The class given is cell-based, human.
Description: as §1, §2, §3

Data set [4] concerns HT29 (colorectal carcinoma). The experiment in a line: SRB cytotoxicity assay, HT29. The class given is cell-based, human. As to conditions: mean n = 3, SD 5-10%.
Description: as §1, §2, §3

Data set [5] is described as follows: SRB cytotoxicity assay, CCD18Co. The class given is cell-based, human. As to conditions: human, CCD18Co non-malignant fibroblasts, 72 h treatment, mean n = 3, SD 5-10%.
Description: as §1, §2, §3

Where [6] appears, read: Homo sapiens, MCF7, 72 h treatment.
Setting [7] is: Homo sapiens, HT-29, 72 h treatment.

As to `CC12CCC3C(CCC4C(C)(C(=O)OCCCC[n+]5ccc(C=Cc6c[nH]c7ccccc67)cc5)CCCC34C)(CC1=O)C2.[Br-]` (stereo not drawn) [Compound 25, 4-{4[(E)-2-(1H-Indol-3-yl)ethenyl]-pyridinium-1-yl}butyl (4α, 8β, 13β) 13-Methyl-16-oxo-17-norkauran-18-oate Bromide], in the data set on A549 (lung carcinoma), the “selectivity index 2 (SI 2)” value is given as 4.14 and the IC50 (usually the concentration that inhibits the measured activity by half) is 2620 nM. In data set [1], the “selectivity index 1 (SI 1)” value was 59 and 59.32; the 50% inhibitory concentration (IC50) is 180 nM; the “tumor cell selectivity, in words” value is “retained selectivity”. In addition, in the data set on MCF7 (breast carcinoma) (72 h treatment), the half-maximal inhibitory concentration (IC50) turned out to be 490 nM. Further, the midpoint of inhibition in [2], the IC50, lay at 10800 nM. In the data set on A549 cells, the subcellular accumulation entry is given as “preferential mitochondrial localization”. In data set [3], the “drug resistance in the A2780/A2780cis model, in words” value is reported as “able to reduce or even overcome drug resistance”; the 50% inhibitory concentration (IC50) worked out at 310 nM; the “resistance index (RI)” value came out at 1.70. In data set [4] (72 h treatment), this molecule yielded a concentration for half-maximal inhibition (IC50) of 880 nM.
In the case of `CC12CCC3C(CCC4C(C)(C(=O)OCCC[n+]5ccc(C=Cc6c[nH]c7ccccc67)cc5)CCCC34C)(CC1=O)C2.[Br-]` (stereo not drawn) [Compound 17, 3-{4-[(E)-2-(1H-Indol-3-yl)ethenyl]-pyridinium-1-yl}-propyl (4α, 8β, 13β) 13-Methyl-16-oxo-17-norkauran-18-oate Bromide], the “selectivity index 2 (SI 2)” value in the data set with A549 (lung carcinoma) was 5.88. The IC50 stood at 3390 nM in the data set with A549 (lung carcinoma); 280 nM in data set [1]; 590 nM in the data set on MCF7 (breast carcinoma) (72 h treatment); 19900 nM in [2]; 300 nM in data set [3]; 760 nM in data set [4] (72 h treatment). Moreover, the “selectivity index 1 (SI 1)” value in data set [1] was 71.25. For the same molecule, the “tumor cell selectivity, in words” value in data set [1] is “retained selectivity”. The subcellular accumulation entry with A549 cells is recorded as “preferential mitochondrial localization”. For the same molecule, in data set [3], the “drug resistance in the A2780/A2780cis model, in words” value is recorded as “able to reduce or even overcome drug resistance”. Also, the “resistance index (RI)” value in data set [3] is given as 1.07.
For `C(=C\c1c[nH]c2ccccc12)/c1ccccn1` [Compound 3, 3-[(E)-2-Pyridin-2-yl-ethenyl]-1H-indole], the melting point – broadly, the temperature of the solid-liquid transition – was in the range of 185 to 187 °C. In addition, in the data set on A549 (lung carcinoma), the “selectivity index 2 (SI 2)” value is 3.33. Besides, the IC50 in the data set on A549 (lung carcinoma) (Homo sapiens, A549) was 26300 nM. Further, in [1], the “selectivity index 1 (SI 1)” value is listed as 73.27. The molecule further gave an IC50 in data set [1] (Homo sapiens, A2780) of 1190 nM. The molecule further displayed a concentration for half-maximal inhibition (IC50) in the data set with MCF7 (breast carcinoma) (setting [6]) of 1120 nM. This molecule also showed a 50% inhibitory concentration (IC50) at 72 h in [5] of 87400 nM. The molecule also registered an IC50 in data set [3] (Homo sapiens, A2780cis) of 39200 nM. The “resistance index (RI)” value in [3] is 32.88. The same molecule came in with an IC50 in data set [4] (setting [7]) of 28700 nM.
With `COc1cccc2c1C(=O)c1c(O)c3c(c(O)c1C2=O)C[C@@](O)(C(=O)CO)C[C@@H]3O[C@H]1C[C@H](N)[C@H](O)[C@H](C)O1` [DOX, doxorubicin, reference compound], the “selectivity index 2 (SI 2)” value with A549 (lung carcinoma) came to 13.9. For the same molecule, the IC50 in the data set on A549 (lung carcinoma) (Homo sapiens, A549) was determined as 17 nM; in data set [1] (Homo sapiens, A2780), 7 nM; in the data set on MCF7 (breast carcinoma) (setting [6]) it was 83 nM; in data set [3] (Homo sapiens, A2780cis) it was 109 nM; in data set [4] (setting [7]), 98 nM. Also, the “selectivity index 1 (SI 1)” value in data set [1] was found to be 32.7. Further, in data set [5], the IC50 at 72 h came out at 242 nM. Also, the entries for the “resistance index (RI)” value in [3] and in data set [3] (listed as doxorubicin) were 14.7 and “approximately 14”, respectively.
For the molecule `C(=C\c1c[nH]c2ccccc12)/c1cccnc1` [Compound 4, 3-[(E)-2-Pyridin-3-yl-ethenyl]-1H-indole], the “selectivity index 2 (SI 2)” value with A549 (lung carcinoma) stood at 5.50. For the same molecule, the IC50 with A549 (lung carcinoma) (Homo sapiens, A549) amounted to 16400 nM; in data set [1] (Homo sapiens, A2780) it was 1170 nM; in the data set with MCF7 (breast carcinoma) (setting [6]), 5180 nM; in [3] (Homo sapiens, A2780cis) it was 21000 nM; in data set [4] (setting [7]) it was 7830 nM. In addition, in data set [1], the “selectivity index 1 (SI 1)” value is 77.40. In data set [5], half-maximal inhibition (IC50 at 72 h) required 90300 nM. Also, in [3], the “resistance index (RI)” value was determined as 17.97.
`C(=C\c1c[nH]c2ccccc12)/c1ccncc1` [Compound 5, 3-[(E)-2-Pyridin-4-yl-ethenyl]-1H-indole] registered a melting point of 254 to 255 °C. Further, in the data set with A549 (lung carcinoma), the “selectivity index 2 (SI 2)” value is given as 6.49. In the data set on A549 (lung carcinoma) (Homo sapiens, A549), this molecule gave an IC50 of 15400 nM. In addition, the “selectivity index 1 (SI 1)” value in data set [1] is 44.21. In addition, in data set [1] (Homo sapiens, A2780), it took 2260 nM to reach half-maximal inhibition (IC50). Further, 10900 nM corresponded to half-maximal inhibition with MCF7 (breast carcinoma) (setting [6]) (IC50). This molecule also returned a half-inhibitory concentration (IC50) at 72 h in [5] of 100000 nM. In addition, the subcellular accumulation result in the data set with A549 cells is recorded as “preferential mitochondrial localization”. Further, inhibition in data set [3] (Homo sapiens, A2780cis) was half-maximal at 16400 nM (IC50). In addition, the “resistance index (RI)” value in data set [3] amounted to 7.26. Also, the IC50 in [4] (setting [7]) is 16500 nM.
